Values of other authors in patent publication US20090208944A1 (priority 2005, published 2009).

Target: CYP2D6 enzyme system (Homo sapiens, UniProt P10635)
Details: classification from literature

Sequence of CYP2D6 enzyme system (P10635 whole entry): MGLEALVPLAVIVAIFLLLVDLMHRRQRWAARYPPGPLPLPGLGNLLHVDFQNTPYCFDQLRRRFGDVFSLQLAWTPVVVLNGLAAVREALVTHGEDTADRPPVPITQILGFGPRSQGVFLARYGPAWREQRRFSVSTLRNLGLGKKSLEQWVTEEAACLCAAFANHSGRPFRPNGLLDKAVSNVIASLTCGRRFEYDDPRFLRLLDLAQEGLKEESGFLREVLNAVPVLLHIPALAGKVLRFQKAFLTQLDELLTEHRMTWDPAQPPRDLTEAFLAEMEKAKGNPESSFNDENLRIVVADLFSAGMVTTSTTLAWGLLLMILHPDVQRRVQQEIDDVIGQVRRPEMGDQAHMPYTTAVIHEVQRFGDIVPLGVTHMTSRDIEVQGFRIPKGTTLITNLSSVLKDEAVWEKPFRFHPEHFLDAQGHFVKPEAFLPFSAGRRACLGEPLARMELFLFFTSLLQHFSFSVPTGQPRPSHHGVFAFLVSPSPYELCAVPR

Row | potency as inhibitor of the CYP2D6 enzyme system | Structure (SMILES)
1 | Potent | Fc1ccc([C@@H]2CCNC[C@H]2COc2ccc3c(c2)OCO3)cc1 [paroxetine]
2 | Moderate | O=C(CCCN1CCC(O)(c2ccc(Cl)cc2)CC1)c1ccc(F)cc1 [haloperidol]
3 | Moderate | CN/C(=N/CCSCc1nc[nH]c1C)NC#N [cimetidine]
4 | Moderate | CN(C)CCC=C1c2ccccc2COc2ccccc21 [doxepin]
5 | Moderate | CN[C@H]1CC[C@@H](c2ccc(Cl)c(Cl)c2)c2ccccc21 [sertraline]
